For one experiment, the target named is Heat shock protein HSP90 (Homo sapiens, UniProt P07900+P08238). As to the kind of experiment: Inhibition of HSP90 (unknown origin). The class given is protein assay.
The test system of another experiment is DU-145. As to the kind of experiment: Antiproliferative activity against p53 deficient human DU145 cells incubated for 72 hrs by CellTiter-Glo assay. The class given is functional. Conditions: DU-145, 72 h.
A further experiment has as its system NCI-H1299. As to the kind of experiment: Antiproliferative activity against p53 deficient human H1299 cells incubated for 72 hrs by CellTiter-Glo assay. The class given is functional. As to conditions: NCI-H1299, 72 h.
Experiment [1] deals with [Pyruvate dehydrogenase (acetyl-transferring)] kinase isozyme 1, mitochondrial (Homo sapiens, UniProt Q15118). As to the kind of experiment: Inhibition of PDHK1 (unknown origin) by radiometric biochemical kinase assay.
Experiment [2] concerns the target T1, [Pyruvate dehydrogenase (acetyl-transferring)] kinase isozyme 4, mitochondrial (Homo sapiens, UniProt Q16654). As to the kind of experiment: Inhibition of PDHK4 (unknown origin) by radiometric biochemical kinase assay.
In experiment [3] the target is T2, [Pyruvate dehydrogenase (acetyl-transferring)] kinase isozyme 2, mitochondrial (Homo sapiens, UniProt Q15119). As to the kind of experiment: Inhibition of PDHK2 (unknown origin) by radiometric biochemical kinase assay.
For experiment [4], the target named is [Pyruvate dehydrogenase (acetyl-transferring)] kinase isozyme 3, mitochondrial (Homo sapiens, UniProt Q15120). As to the kind of experiment: Inhibition of PDHK3 (unknown origin) by radiometric biochemical kinase assay.
Experiment [5] addresses T2, [Pyruvate dehydrogenase (acetyl-transferring)] kinase isozyme 2, mitochondrial. As to the kind of experiment: Inhibition of PDHK2 (unknown origin) assessed as reduction in NAD measured for 30 mins.
Experiment [6] deals with T1, [Pyruvate dehydrogenase (acetyl-transferring)] kinase isozyme 4, mitochondrial. As to the kind of experiment: Inhibition of PDHK4 (unknown origin) assessed as reduction in NAD measured for 30 mins.

Sequence of [Pyruvate dehydrogenase (acetyl-transferring)] kinase isozyme 3, mitochondrial (Q15120 whole entry): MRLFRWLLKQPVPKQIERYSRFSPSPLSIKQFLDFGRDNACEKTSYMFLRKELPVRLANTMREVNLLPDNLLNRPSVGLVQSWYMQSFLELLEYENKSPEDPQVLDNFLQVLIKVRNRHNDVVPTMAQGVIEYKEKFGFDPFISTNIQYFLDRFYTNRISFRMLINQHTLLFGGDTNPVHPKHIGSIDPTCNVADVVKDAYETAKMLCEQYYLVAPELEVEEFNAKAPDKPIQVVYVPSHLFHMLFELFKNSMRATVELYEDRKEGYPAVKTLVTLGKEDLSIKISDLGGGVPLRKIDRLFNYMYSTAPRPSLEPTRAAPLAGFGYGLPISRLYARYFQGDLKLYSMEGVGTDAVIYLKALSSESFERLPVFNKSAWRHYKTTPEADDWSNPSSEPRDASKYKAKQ
T1 sequence (Q16654 whole entry): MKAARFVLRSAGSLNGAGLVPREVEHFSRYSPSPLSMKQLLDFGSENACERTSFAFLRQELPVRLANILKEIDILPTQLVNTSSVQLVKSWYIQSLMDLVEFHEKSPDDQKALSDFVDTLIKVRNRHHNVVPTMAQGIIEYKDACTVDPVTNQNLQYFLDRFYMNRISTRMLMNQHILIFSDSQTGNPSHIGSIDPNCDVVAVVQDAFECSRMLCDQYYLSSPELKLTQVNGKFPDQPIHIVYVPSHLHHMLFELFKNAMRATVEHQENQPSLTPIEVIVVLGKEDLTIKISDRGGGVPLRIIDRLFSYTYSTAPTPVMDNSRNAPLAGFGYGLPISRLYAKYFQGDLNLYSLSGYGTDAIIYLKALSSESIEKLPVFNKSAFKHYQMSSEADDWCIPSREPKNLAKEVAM
Sequence of [Pyruvate dehydrogenase (acetyl-transferring)] kinase isozyme 1, mitochondrial (Q15118 whole entry): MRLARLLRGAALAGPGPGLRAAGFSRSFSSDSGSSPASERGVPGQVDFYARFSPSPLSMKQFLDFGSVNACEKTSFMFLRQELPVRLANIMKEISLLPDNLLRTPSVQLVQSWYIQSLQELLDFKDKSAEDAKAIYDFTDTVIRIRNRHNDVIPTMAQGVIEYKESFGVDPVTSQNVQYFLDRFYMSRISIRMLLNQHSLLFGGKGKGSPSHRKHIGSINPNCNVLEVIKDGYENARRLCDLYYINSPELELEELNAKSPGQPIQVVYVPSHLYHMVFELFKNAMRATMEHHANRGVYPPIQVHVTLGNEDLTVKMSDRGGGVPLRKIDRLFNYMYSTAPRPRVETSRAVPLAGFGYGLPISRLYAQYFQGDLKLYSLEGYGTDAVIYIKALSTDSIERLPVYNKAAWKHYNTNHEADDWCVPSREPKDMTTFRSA

What is called IC50 is the point on the concentration scale where inhibition reaches its midpoint. As usually defined, the GI50 is the concentration at which growth is held to half of that of the control. Read a high GI50 as lower sensitivity of the cells. `Cc1cnc(Cl)nc1-c1ccc(N(Cc2ccc(CNC(=O)C(F)F)cc2)C(=O)c2ccc(O)cc2O)cc1`: on Heat shock protein HSP90, the IC50 was greater than 10000 nM. Besides, the GI50 in the experiment with DU-145 and with NCI-H1299 was greater than 50000 nM throughout.

As for `CN(C)C(=O)c1ccc(N(Cc2ccccc2)C(=O)c2ccc(O)cc2O)cc1`, the figures for the IC50 in experiment [1], in experiment [2] and in [3] were 109 nM, 66 nM and 206 nM, respectively.

As to `CN(C)C(=O)c1ccc(N(Cc2ccc(F)cc2)C(=O)c2ccc(O)cc2)cc1`, the results for the IC50 in experiment [2] and in experiment [3] were 390 nM and 2040 nM, respectively.

On to `CN(C)C(=O)c1ccc(N(Cc2ccc(F)cc2)C(=O)c2ccccc2O)cc1`, for which the IC50 in experiment [2] and in [3] was greater than 10000 nM in each case.

As to `CN(C)C(=O)c1ccc(N(Cc2cnc(Br)s2)C(=O)c2ccc(O)cc2O)cc1`, the IC50 turned out to be 90 nM in [4], 24 nM in experiment [1], 87 nM in experiment [2] and 132 nM in [3]. Further, the results for the GI50 in the experiment on DU-145 and with NCI-H1299 were 18900 nM and 32200 nM, respectively.

For the molecule `CC(=O)Nc1ccc(CN(C(=O)c2ccc(O)cc2O)c2ccc(C(=O)N3CCOCC3)cc2)cc1`, the IC50 came out at 5790 nM in experiment [2] and 2660 nM in [3].

Consider `CC(=O)Nc1ccc(CN(C(=O)c2ccc(O)cc2O)c2ccc(C(=O)NCCO)cc2)cc1`, for which the IC50 stood at 12300 nM in experiment [2] and 9910 nM in experiment [3].

As to `CN(C)C(=O)c1ccc(N(Cc2ncc(Br)s2)C(=O)c2ccc(O)cc2O)cc1`, the IC50 amounted to 64 nM in experiment [4]; 20 nM in experiment [1]; 6000 nM against Heat shock protein HSP90; 20 nM in [2]; 64 nM in [3]. Moreover, the values for the GI50 in the experiment on DU-145 and in the experiment on NCI-H1299 were 40800 nM and 60200 nM, respectively.

`CC(=O)Nc1ccc(CN(C(=O)c2ccc(O)cc2O)c2ccc(C(=O)N3CCCCC3)cc2)cc1`: the IC50 in experiment [2] stood at 1980 nM; in experiment [3], 1620 nM.

Consider `CC(=O)Nc1ccc(CN(C(=O)c2ccc(O)cc2O)c2ccc(C(=O)NC3CC3)cc2)cc1`, for which the figures for the IC50 in [2] and in experiment [3] were 14800 nM and 1960 nM, respectively.

For `CC(=O)Nc1ccc(CN(C(=O)c2ccc(O)cc2O)c2ccc(C(=O)N(C)C)cc2)cc1`, the IC50 came to 311 nM in experiment [2] and 503 nM in experiment [3].

With `CN(C)C(=O)c1ccc(N(Cc2ccc(C(F)(F)F)cc2)C(=O)c2ccc(O)cc2O)cc1`, the half-inhibitory concentration (IC50) in experiment [2] worked out at 273 nM; in [3], 140 nM.

Consider `CN(C)C(=O)c1ccc(N(Cc2ccc(C#N)s2)C(=O)c2ccc(O)cc2O)cc1`, for which the IC50 in experiment [4] stood at 98 nM; in experiment [1], 57 nM; in experiment [2], 89 nM; in experiment [3] it was 95 nM. Also, the values for the GI50 in the experiment with DU-145 and with NCI-H1299 were 59800 nM and 107000 nM, respectively.

Regarding `CN(C)C(=O)c1ccc(N(Cc2ccc(I)o2)C(=O)c2ccc(O)cc2O)cc1`, the IC50 in [4] stood at 5 nM; in experiment [1] it was 14 nM; in experiment [2], 11 nM; in experiment [3], 98 nM. Further, the GI50 came to 15900 nM with DU-145 and 39200 nM in the experiment with NCI-H1299.

Turning to `CN(C)C(=O)c1ccc(N(Cc2ccc3ccccc3c2)C(=O)c2ccc(O)cc2O)cc1`, the IC50 in [2] stood at 234 nM; in experiment [3], 373 nM.

In the case of `CN(C)C(=O)c1ccc(N(Cc2ccc(Cl)cc2)C(=O)c2ccc(O)cc2O)cc1`, the GI50 with DU-145 was 51000 nM; in the experiment on NCI-H1299, 31500 nM. The IC50 in [2] was found to be 169 nM; in [3], 126 nM.

In the case of `CN(C)C(=O)c1ccc(N(Cc2ccc([N+](=O)[O-])cc2)C(=O)c2ccc(O)cc2O)cc1`, the GI50 in the experiment with DU-145 was 44500 nM; with NCI-H1299, 97100 nM. Further, the results for the IC50 in [2] and in experiment [3] were 99 nM and 110 nM, respectively.

For the molecule `CN(C)C(=O)c1ccc(N(CC(C)(C)C)C(=O)c2ccc(O)cc2O)cc1`, the IC50 in experiment [2] worked out at 5330 nM; in experiment [3] it was 772 nM.

Consider `CN(C)C(=O)c1ccc(N(Cc2ccc(Br)s2)C(=O)c2ccc(O)cc2O)cc1`, for which the IC50 in [4] was 90 nM; in [1], 42 nM; in experiment [2], 8 nM; in [3], 18 nM. The GI50 worked out at 42200 nM in the experiment on DU-145 and 49800 nM with NCI-H1299.

In the case of `Cc1ccc(CN(C(=O)c2ccc(O)cc2O)c2ccc(C(=O)N(C)C)cc2)o1`, the IC50 in experiment [4] amounted to 255 nM; in experiment [1] it was 20 nM; in experiment [2] it was 52 nM; in experiment [3], 252 nM.

As to `CN(C)C(=O)c1ccc(N(Cc2ccc(F)cc2)C(=O)c2ccc(O)cc2O)cc1`, the IC50 in [4] turned out to be 142 nM; in [1], 67 nM; against Heat shock protein HSP90, 5200 nM; in [2] it was 52 nM; in experiment [3], 113 nM. Besides, the GI50 is 69700 nM in the experiment on DU-145 and 57100 nM in the experiment with NCI-H1299.

In the case of `CN(C)C(=O)c1ccc(N(Cc2ccc(C#N)cc2)C(=O)c2ccc(O)cc2O)cc1`, the IC50 in experiment [4] turned out to be 461 nM; in [1], 151 nM; in experiment [2] it was 399 nM; in experiment [3], 302 nM.

Regarding `CN(C)C(=O)c1ccc(N(Cc2ccco2)C(=O)c2ccc(O)cc2O)cc1`, the IC50 was 1090 nM in experiment [5]; 67 nM in experiment [4]; 48 nM in experiment [1]; 770 nM on Heat shock protein HSP90; 69 nM in experiment [2]; 580 nM in experiment [6]. For the same molecule, the midpoint of inhibition in experiment [3], the IC50, lay at 133 nM. Besides, the GI50 with DU-145 is 9000 nM; with NCI-H1299 it was 7800 nM.

Turning to `CC(=O)Nc1ccc(CN(C(=O)c2ccc(O)cc2O)c2ccc(C(=O)N3CCCC3)cc2)cc1`, the figures for the IC50 in experiment [2] and in experiment [3] were 1810 nM and 1660 nM, respectively.

As for `CNC(=O)c1ccc(N(Cc2ccc(NC(C)=O)cc2)C(=O)c2ccc(O)cc2O)cc1`, the IC50 in experiment [2] turned out to be 7840 nM; in experiment [3], 8590 nM.

Regarding `CN(C)C(=O)c1ccc(N(CC2CCCCC2)C(=O)c2ccc(O)cc2O)cc1`, the IC50 in [4] amounted to 858 nM; in experiment [1], 140 nM; in experiment [2], 775 nM; in experiment [3] it was 184 nM.

Turning to `CN(C)C(=O)c1ccc(N(Cc2ccc(Cl)o2)C(=O)c2ccc(O)cc2O)cc1`, the IC50 came out at 181 nM in experiment [4], 24 nM in experiment [1], 82 nM in experiment [2] and 193 nM in experiment [3]. For the same molecule, the GI50 worked out at 29900 nM in the experiment with DU-145 and 30000 nM in the experiment with NCI-H1299.

For `CC(=O)Nc1ccc(CN(C(=O)c2ccc(O)cc2O)c2ccc(C(=O)O)cc2)cc1`, the IC50 in experiment [2] was determined as 4670 nM; in [3], 7220 nM.
